These results are taken from ChEMBL document CHEMBL1150513, “A Hammett correlation for CC-1065 and duocarmycin analogs: Magnitude of substituent electronic effects on functional reactivity” (Bioorg Med Chem Lett, 1996).

Values joined by “and” are separate entries in the source; they are usually repeats but may differ in a detail not shown here. Equal values may be shown once.

Series [1] can be described thus: Half life at 0.1 equivalent H+ and 20 equivalent CH3OH. It counts as ADME.
The nature of series [2]: Kinetic constant at 0.1 equivalent H+ and 20 equivalent CH3OH. The class given is ADME.
Series [3] can be described thus: Half life at 0.25 equivalent H+ and 100 equivalent CH3OH. The class given is ADME.
A short description of series [4]: Kinetic constant at 0.25 equivalent H+ and 100 equivalent CH3OH. The class given is ADME.
Series [5] can be described thus: Kinetic constant at 0.1 equivalent H+ and 100 equivalent CH3OH. It counts as ADME.
The next series relates to L1210. Briefly: Compound was tested in vitro for cytotoxic potency against L1210 leukemia. It counts as functional, cell-based. Conditions: Mus musculus.
The nature of series [6]: Half life at a pH of 3.0. The class given is ADME. Conditions: pH 3.
Series [7] in a line: Kinetic constant at 0.1 equivalent H+ and 500 equivalent CH3OH. It counts as ADME.
Series [8] is described as follows: Aqueous solvolysis, K value at a pH of 3.0. The class given is ADME. Conditions: buffer, pH 3.
A short description of series [9]: Half life at a pH of 2.0. To be noted: pH 2. It counts as ADME.
Series [10] can be described thus: Aqueous solvolysis, K value at a pH of 2.0. The class given is ADME. Conditions: buffer, pH 2.
Series [11] can be described thus: Half life at 0.1 equivalent H+ and 500 equivalent CH3OH. It counts as ADME.

For `CC(C)(C)OC(=O)N1C[C@H]2C[C@@]23C1=CC(=O)c1ccc(C#N)cc13`, the half-life in series [1] was 9.2 h; in series [3], 0.26 h; in series [6] it was 213 h; in series [9] it was 24.2 h. Also, the k in series [2] came to 0.2 s⁻¹; in series [4], 7.4 s⁻¹; in series [5], 2.1 s⁻¹; in [7], 5.6 s⁻¹; in series [8] it was 9e-07 s⁻¹; in series [10], 7.9e-06 s⁻¹. Moreover, in the series with L1210, the IC50 came to 20 nM. Moreover, the T1/2 in series [11] was 0.92 h and 0.34 h.
As for `CCC(=O)N1C[C@H]2C[C@@]23C1=CC(=O)c1ccccc13`, 110 nM corresponded to half-maximal inhibition in the series with L1210 (IC50). This compound gave a half-life in [6] of 96 h. Further, the k in series [8] was 2e-06 s⁻¹.
The like results for `COC(=O)N1C[C@H]2C[C@@]23C1=CC(=O)c1ccccc13` were, in that order, 140 nM, 57 h and 3.4e-06 s⁻¹.
In the series on L1210, `CC(C)(C)OC(=O)N1C[C@H]2C[C@@]23C1=CC(=O)c1ccccc13` returned an IC50 of 80 nM. This compound had a half-life in [6] of 133 h. The k came out at 1.45e-06 s⁻¹ in series [8] and 1.53e-05 s⁻¹ in series [10].
For `CNC(=O)N1C[C@H]2C[C@@]23C1=CC(=O)c1ccccc13`, the IC50 in the series with L1210 was determined as 200 nM. The same compound showed a half-life in series [6] of 36 h. In [8], this compound had a k of 5.3e-06 s⁻¹.
`COC(=O)[C@]1(C)N=C2C(=O)C=C3N(C(=O)OC(C)(C)C)C[C@H]4C[C@@]34C2=C1O` had an IC50 in the series on L1210 of 1000 nM. In series [8], this compound gave a k of 1.75e-06 s⁻¹.
Take `CC(C)(C)OC(=O)N1CC[C@H]2C[C@@]23C1=CC(=O)c1ccccc13`: in the series with L1210, 2000 nM corresponded to half-maximal inhibition (IC50). Besides, in series [6], the half-life is 2.1 h. Also, in series [8], the k is 9.07e-06 s⁻¹.
Compound `COC(=O)c1cc2c([nH]1)C(=O)C=C1N(C(=O)OC(C)(C)C)C[C@H]3C[C@]123` yielded a k in series [8] of 1.08e-06 s⁻¹.
The compound `CCS(=O)(=O)N1C[C@H]2C[C@@]23C1=CC(=O)c1ccccc13` displayed an IC50 in the series with L1210 of 24 nM. The half-life in series [6] was 383 h. The k in [8] was found to be 5e-07 s⁻¹.
`CC(C)(C)OC(=O)N1C[C@H]2C[C@]23C=CC(=O)C=C13` showed an IC50 with L1210 of 18000 nM. This compound also had a half-life in series [6] of 0.01 h. The compound further displayed a k in series [8] of 1.98e-06 s⁻¹.
In turn, `COc1ccc2c(c1)[C@@]13C[C@@H]1CN(C(=O)OC(C)(C)C)C3=CC2=O` showed an IC50 in the series on L1210 of 90 nM. For the same compound, the half-life was 110 h in series [6] and 11.8 h in series [9]. Further, the values for the k in [8] and in [10] were 1.75e-06 s⁻¹ and 1.62e-05 s⁻¹, respectively.
In [8], `Cc1c[nH]c2c1[C@@]13C[C@@H]1CN(C(=O)OC(C)(C)C)C3=CC2=O` returned a k of 5.26e-06 s⁻¹.

The half-life is how long it takes for the measured level to halve. As usually defined, the IC50 is the point on the concentration scale where inhibition reaches its midpoint.
